Entries after “also recorded” stand apart in the source; their conditions may differ.
Experiments:
[1] = system: ALCL cell lines; experiment: Proliferation of NPM-ALK-dependent ALCL / ALK+ T-cell lymphoma cell lines; assay type: cell-based; details: FIGS. 5, 6
Description: (§1) Cell proliferation inhibition assays were run for compound (II) with the five target NPM-ALK-dependent ALCL cell lines (Karpas 299, SuDHL-1, JB6, SupM2, UConn) and 12 unrelated cell lines (HEK293, CHO-K1, MCF7, HepG2, H292, H520, H1581, H596, H522, CHA-GO-K1, UMC-11, SK-MES1). […] The pronounced target cell-killing effect is also observed (molecular mechanisms to be determined).

[2] = system: U937; experiment: Cellular IC50, U937; assay type: cell-based; details: Homo sapiens, U-937; Table 3A
[3] = Liver microsome stability, Human LM-P1 / HLM; assay type: in vitro ADME; details: Table 3A, human liver microsomes; read-out: CL HLM
Description: Metabolic stability of compound (II) (labeled as CRL241 below) in vitro has been tested in a standard in vitro microsomal stability assay in human microsomes (Cerep Study 13170).

[4] = molecular target: RET (Homo sapiens, UniProt P07949); experiment: RET cell free kinase assay (Table 3A); assay type: biochemical
[5] = system: SUDHL-1; experiment: Cellular IC50, SUDHL-1; assay type: cell-based; details: Homo sapiens, SU-DHL-1; Table 3A
Description: as §1

[6] = molecular target: TRKA (Homo sapiens, UniProt P04629); experiment: TRKA kinase assay; assay type: biochemical; design: 6×His- or GST-tagged kinase domain fragments of the corresponding RTKs expressed in baculovirus system; host or cells: baculovirus system; details: Table 3A; read-out: Cell Free IC50 TRKA
[7] = molecular target: ALK (Homo sapiens, UniProt Q9UM73); experiment: ALK kinase assay (Kinase-Glo / AlphaScreen, purified NPM-ALK); assay type: biochemical; design: fused to the complete intracytoplasmic portion of ALK containing the functional tyrosine kinase domain; 6xHis; made in house; host or cells: insect cells; the other entry of the earlier key: NPM1 (P06748, Nucleophosmin); details: Table 3A; read-out: Cell Free IC50 ALK;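 further: recombinant baculovirus-expressed ALK kinase domain, activity read either as leftover ATP by Kinase-Glo luminescence or as poly(Glu-Tyr) phosphorylation by anti-phosphotyrosine AlphaScreen proximity signal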
[8] = Liver microsome stability, Mouse LM-P1 / MLM; assay type: in vitro ADME; details: Table 3A, mouse liver microsomes; read-out: CL MLM
[9] = system: Karpas299; experiment: Cell proliferation inhibition, ALCL line Karpas299; assay type: cell-based; details: Homo sapiens, KARPAS-299; Table 3A; read-out: Cellular IC50 K-299
Description: The IL-3-dependent lymphoid cell line BaF3 or BaF3 rendered IL-3-independent by engineered expression of NPM-ALK were used in parallel to test each candidate inhibitor. Control wells contained DMSO solvent without test compound. Specific inhibition of ALK signaling is indicated in the assay by impairment of NPM-ALK-expressing BaF3 cell growth without alterations in the growth of parental BaF3. This colorimetric assay of cell proliferation and viability is based upon reduction of the yellow monotetrazolium salt XTT to a water-soluble orange formazan dye, a reaction catalyzed by mitochondrial dehydrogenases in living cells only (Cell Proliferation Kit II, Cat. #1 465 015, Roche Biochemicals). In addition to testing compounds for their ability to impair the growth of BaF3 cells engineered to express NPM-ALK, the NPM-ALK-positive human lymphoma cell line Karpas-299 (Deutsche Sammlung von Mikroorganismen and Zellkulturen GmbH (DSMZ) no. ACC 31), the human BCR-ABL-positive chronic myeloid leukemia cell line K562 (American Type Culture Collection (ATCC) no. CCL-243), and the human T-cell leukemia line Jurkat (DSMZ no. ACC 282) were tested in these assays.
Each compound stock in 100% DMSO was first diluted using 8% DMSO/culture medium to produce a working stock of 250 μM compound. This working stock was then used to perform serial 1:1 dilutions (i.e., 125 μM, 62.5 μM, 31.25 μM, 15.625 μM, 7.8125 μM, and 3.90625 μM) using DMSO-free culture medium. Twenty (20) μL of each of these dilutions was then added to the cells (2×10^4 cells in 80 μL culture medium per 96-well) to obtain the final test compound concentrations (i.e., 25 μM, 12.5 μM, 6.25 μM, 3.125 μM, 1.5625 μM, and 0.78125 μM).
as §1

[10] = molecular target: ROS (Homo sapiens, UniProt P08922); experiment: ROS cell free kinase assay (Table 3A); assay type: biochemical
[11] = system: PC12 cells; experiment: NGF-stimulated neurite outgrowth in PC12 cells; assay type: cell-based; details: 100 nM compound, NGF 100 ng/ml, 6 days
Procedure: In chronic pain states, neurons form outgrowths which sensitize them to pain. NGF-induced neurite outgrowth was used as an assay for TrkA-dependent chronic/neuropathic pain activity.
Methods: PC12 cells were grown in 2% FBS and treated with or without NGF (100 ng/ml) 30 min before adding of vehicle or TRKA compounds for 6 days, changing media on day 3. On day 6 cells were fixed and stained for SRB before photographed for neurite outgrowth.

[12] = system: A549 cells; experiment: TNFα-induced acute inflammation in A549 cells; assay type: cell-based; details: 100 nM Dex or 1 μM compound (VI)
[13] = system: MMP-1 in A549 cells; experiment: PMA induced MMP-1 production in A549 cells; assay type: cell-based; details: one hour treatment
[14] = system: MMP-1 in A549 cells; experiment: Combination of Trk inhibitor and glucocorticoid on MMP-1 expression in A549 cells; assay type: cell-based; details: sub-optimal concentrations
[15] = system: FKBP51 (GR pathway); experiment: GR specific anti-inflammatory marker FKBP51 in A549 cells; assay type: cell-based
[16] = system: IL-8 in A549 cells; experiment: PMA-induced IL-8 levels in A549 cells, with or without RU-486; assay type: cell-based; details: 4 hr treatments
[17] = system: PC-12 cells; experiment: PC-12 cell cytotoxicity; assay type: cell-based; details: FIG. 13
[18] = system: A549 cells; experiment: Prolonged inflammation (PMA induced MMP-1 or IL-8) in A549 cells; assay type: cell-based; details: FIG. 17
Description: Panel 3: All the above were done on the transcriptional level (i.e., MMP-1, IL-8, etc. expressions). For IL-8, this was verified on the translational (i.e., protein expression) level as well.

Sequence of ALK (Q9UM73 with tags, fused parts or gaps): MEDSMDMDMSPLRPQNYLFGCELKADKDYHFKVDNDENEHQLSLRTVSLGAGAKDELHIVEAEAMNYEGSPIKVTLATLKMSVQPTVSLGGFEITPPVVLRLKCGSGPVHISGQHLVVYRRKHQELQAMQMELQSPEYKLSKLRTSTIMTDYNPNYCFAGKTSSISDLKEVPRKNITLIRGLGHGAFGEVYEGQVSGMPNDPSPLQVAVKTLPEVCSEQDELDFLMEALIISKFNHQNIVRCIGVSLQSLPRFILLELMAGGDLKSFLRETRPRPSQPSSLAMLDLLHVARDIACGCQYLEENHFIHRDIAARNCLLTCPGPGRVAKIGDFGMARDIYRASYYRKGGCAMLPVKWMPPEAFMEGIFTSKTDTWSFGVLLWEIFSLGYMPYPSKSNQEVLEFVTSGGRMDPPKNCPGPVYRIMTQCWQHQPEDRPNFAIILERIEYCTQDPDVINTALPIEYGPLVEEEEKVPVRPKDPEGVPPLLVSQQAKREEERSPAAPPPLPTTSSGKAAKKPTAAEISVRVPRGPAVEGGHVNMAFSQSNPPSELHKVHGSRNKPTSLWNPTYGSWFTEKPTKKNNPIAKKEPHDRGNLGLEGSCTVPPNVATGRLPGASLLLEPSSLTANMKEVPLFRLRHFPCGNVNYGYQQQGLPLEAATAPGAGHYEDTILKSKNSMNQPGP
Sequence of RET (P07949 29-1114): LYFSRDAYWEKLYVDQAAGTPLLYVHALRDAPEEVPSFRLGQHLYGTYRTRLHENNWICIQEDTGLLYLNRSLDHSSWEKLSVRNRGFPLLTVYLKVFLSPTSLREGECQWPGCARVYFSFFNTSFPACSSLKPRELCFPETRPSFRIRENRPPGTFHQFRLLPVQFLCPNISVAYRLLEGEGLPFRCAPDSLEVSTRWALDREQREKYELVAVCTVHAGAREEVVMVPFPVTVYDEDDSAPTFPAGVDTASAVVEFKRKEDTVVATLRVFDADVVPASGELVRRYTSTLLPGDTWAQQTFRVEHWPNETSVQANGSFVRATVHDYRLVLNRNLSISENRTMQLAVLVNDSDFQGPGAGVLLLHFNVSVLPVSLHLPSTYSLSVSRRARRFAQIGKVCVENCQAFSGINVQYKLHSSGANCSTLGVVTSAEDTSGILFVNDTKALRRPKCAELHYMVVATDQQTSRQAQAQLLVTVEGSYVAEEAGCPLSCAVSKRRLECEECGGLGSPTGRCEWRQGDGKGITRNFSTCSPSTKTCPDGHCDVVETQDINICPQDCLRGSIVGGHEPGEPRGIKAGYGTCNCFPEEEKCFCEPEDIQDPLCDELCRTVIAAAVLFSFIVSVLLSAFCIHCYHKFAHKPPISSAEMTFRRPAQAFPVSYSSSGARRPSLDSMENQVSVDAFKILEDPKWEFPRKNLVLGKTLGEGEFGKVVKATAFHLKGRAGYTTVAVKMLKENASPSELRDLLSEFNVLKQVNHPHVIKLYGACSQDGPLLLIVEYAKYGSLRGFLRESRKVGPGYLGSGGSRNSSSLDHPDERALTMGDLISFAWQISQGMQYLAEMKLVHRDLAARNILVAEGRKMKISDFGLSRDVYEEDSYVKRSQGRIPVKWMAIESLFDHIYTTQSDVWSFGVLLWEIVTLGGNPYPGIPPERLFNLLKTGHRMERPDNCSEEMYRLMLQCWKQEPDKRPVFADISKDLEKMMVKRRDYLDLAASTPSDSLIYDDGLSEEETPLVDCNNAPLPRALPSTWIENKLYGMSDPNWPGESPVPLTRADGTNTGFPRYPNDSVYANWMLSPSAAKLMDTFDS
Sequence of TRKA (P04629 510-781 limits assumed): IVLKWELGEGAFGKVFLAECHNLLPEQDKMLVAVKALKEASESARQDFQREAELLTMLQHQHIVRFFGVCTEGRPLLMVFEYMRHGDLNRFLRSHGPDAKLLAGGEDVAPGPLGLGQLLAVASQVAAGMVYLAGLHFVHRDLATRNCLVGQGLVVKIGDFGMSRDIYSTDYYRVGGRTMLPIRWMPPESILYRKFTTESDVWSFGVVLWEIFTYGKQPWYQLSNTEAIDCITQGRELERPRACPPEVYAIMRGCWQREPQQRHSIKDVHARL
Sequence of ROS (P08922 28-2347): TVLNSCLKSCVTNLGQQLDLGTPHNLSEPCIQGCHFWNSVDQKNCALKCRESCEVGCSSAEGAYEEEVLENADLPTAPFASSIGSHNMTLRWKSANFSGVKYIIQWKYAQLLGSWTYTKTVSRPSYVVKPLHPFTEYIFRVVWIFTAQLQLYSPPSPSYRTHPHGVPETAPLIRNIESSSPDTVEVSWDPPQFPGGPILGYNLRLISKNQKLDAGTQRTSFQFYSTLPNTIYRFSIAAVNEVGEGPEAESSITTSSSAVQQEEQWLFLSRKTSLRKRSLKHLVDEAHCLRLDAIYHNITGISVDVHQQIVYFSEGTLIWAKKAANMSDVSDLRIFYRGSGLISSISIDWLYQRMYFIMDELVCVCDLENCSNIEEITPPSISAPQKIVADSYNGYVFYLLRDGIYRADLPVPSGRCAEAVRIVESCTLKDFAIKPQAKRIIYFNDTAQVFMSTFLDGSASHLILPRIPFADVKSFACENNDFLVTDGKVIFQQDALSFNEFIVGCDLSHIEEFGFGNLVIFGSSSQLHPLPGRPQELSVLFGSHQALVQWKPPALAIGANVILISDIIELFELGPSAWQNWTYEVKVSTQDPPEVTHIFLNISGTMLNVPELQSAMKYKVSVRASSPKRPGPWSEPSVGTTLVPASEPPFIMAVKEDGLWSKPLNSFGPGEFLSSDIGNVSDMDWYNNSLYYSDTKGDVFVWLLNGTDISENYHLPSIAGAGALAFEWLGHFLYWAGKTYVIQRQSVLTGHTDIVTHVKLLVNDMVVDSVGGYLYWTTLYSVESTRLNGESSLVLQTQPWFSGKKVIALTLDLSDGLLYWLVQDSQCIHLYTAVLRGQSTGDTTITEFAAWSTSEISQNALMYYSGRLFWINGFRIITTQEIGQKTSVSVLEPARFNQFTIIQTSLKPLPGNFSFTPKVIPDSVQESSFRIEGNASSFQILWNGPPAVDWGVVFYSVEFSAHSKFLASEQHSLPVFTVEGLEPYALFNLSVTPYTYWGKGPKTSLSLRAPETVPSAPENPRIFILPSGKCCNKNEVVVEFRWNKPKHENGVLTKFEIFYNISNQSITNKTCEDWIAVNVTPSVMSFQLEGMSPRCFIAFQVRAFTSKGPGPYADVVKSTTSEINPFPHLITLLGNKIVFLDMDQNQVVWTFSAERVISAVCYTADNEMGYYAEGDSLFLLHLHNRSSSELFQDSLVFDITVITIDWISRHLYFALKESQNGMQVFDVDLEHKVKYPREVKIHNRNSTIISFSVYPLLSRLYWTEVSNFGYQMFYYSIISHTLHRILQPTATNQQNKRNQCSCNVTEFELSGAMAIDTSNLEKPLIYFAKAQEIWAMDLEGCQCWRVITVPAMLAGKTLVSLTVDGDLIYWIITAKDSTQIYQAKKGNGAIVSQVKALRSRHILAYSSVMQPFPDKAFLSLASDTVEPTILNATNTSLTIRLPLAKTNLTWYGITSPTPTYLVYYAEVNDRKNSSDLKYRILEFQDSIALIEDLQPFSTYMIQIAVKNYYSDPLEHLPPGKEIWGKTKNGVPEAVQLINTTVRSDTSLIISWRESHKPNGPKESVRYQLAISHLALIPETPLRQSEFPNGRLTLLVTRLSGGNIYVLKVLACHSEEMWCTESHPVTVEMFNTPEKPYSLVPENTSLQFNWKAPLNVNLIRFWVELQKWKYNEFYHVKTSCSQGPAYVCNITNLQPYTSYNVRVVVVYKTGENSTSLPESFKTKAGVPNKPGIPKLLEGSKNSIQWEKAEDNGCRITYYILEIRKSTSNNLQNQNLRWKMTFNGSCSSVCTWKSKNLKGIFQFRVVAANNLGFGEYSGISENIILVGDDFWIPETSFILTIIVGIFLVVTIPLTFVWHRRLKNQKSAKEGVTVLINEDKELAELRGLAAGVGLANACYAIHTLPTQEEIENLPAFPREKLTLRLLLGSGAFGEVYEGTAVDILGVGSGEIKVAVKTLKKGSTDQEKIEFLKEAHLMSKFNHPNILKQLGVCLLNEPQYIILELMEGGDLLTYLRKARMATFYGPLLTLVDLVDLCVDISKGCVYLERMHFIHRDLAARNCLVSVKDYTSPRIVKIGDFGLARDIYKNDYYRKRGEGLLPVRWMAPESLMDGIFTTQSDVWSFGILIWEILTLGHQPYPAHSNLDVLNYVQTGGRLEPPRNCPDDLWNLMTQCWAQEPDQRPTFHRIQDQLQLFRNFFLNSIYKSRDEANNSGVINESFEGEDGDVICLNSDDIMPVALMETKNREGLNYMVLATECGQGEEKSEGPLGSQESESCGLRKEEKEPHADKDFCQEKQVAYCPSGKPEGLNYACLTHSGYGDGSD

## C[C@@H](Cc1cccs1)Nc1cc[nH]c(=O)c1-c1nc2cc3c(cc2[nH]1)C(=O)N(CCCN1CCCC1)C3 [compound (V)]
[1]
  Inhibition of ALCL / ALK+ T-cell lymphoma cell line proliferation: potent and highly selective inhibitor of ALCL cell lines

## C[C@@H](Cc1c(F)c(F)cc(F)c1F)Nc1cc[nH]c(=O)c1-c1nc2cc3c(cc2[nH]1)C(=O)N(C1CCN(C)CC1)C3
[2]
  IC50: 1180 nM
[3]
  CLint scaled: < 5.8 mL/min/kg
[4]
  IC50: 6 nM
[5]
  IC50: 93 nM
[6]
  IC50: 5 nM
[7]
  IC50: 10 nM
[8]
  CLint scaled: < 5.8 mL/min/kg
[9]
  IC50: 99 nM
[10]
  IC50: 0.3 nM

## C[C@@H](Cc1cc(F)cc(F)c1F)Nc1cc[nH]c(=O)c1-c1nc2cc3c(cc2[nH]1)CN(CCN(C)C)C3=O [compound (VI)]
[11]
  NGF-stimulated neurite outgrowth: inhibited the neurite outgrowth
[12]
  TNFα-induced acute inflammation: partially reversible
[13]
  Concentration required for complete inhibition of PMA induced MMP-1 production: ~1 µM
[14]
  Effect of combination with Dex on PMA-induced inflammation (MMP-1 expression): additive anti-inflammatory effects
[15]
  Activation of GR pathway (FKBP51 marker): did not active the GR pathway
[16]
  Effect of GR antagonist RU-486 on inhibition of PMA-induced IL-8 levels: not affected or possibly were more potent
[17]
  PC-12 cell cytotoxicity: lack of PC-12 cell cytotoxicity
[18]
  Anti-inflammatory effect on prolonged inflammation (PMA induced MMP-1 or IL-8): anti-inflammatory activity was observed; also recorded: demonstrated anti-inflammatory activity which was not reversible by GR antagonist
